No end group written: not given here.
Experiments:
[1] = molecular target: T1, interaction between FOXM1 and PLK1 (Homo sapiens, UniProt Q08050); assay: Co-IP in 231-Flag-FOXM1-Ind cells; type: cell-based; details: doxycycline 200 ng/mL 24 h, M1-21 10, 20 µM or TAT-106-126 20, 40, 80 µM for 6 h
T1 construct: expressed in transfected cells; host or cells: MDA-MB-231 stably infected with pLVX-TetOne-Flag-FOXM1b lentivirus (231-Flag-FOXM1-Ind), doxycycline-induced
Text: Number of repetitions = 3. […] Number of repetitions = 3. […] Number of repetitions = 3. […] GAPDH was used as a loading control.

[2] = tested on: MDA-MB-231 cells; assay: Half-life of biotin-labeled peptides in living cells (Western blotting); type: in vitro ADME, human; details: biotin-labeled peptide 20 µM for 2 h, then fresh medium, cells collected 0-48 h, β-actin loading control
Experimental: (§1) SDS-PAGE gel electrophoresis and Coomassie brilliant blue staining were performed to measure peptide stability. […] Cells were collected at different post-treatment time points (0, 1, 2, 4, 8, 16, 24, 36, 48 h). […] D The docking of peptide P22 (106–126) to the FOXM1 C-terminus (PDB ID 6OSW) was created by Rosetta FlexPepDock and PyMOL. Left, the interface of peptide-protein interaction, the peptide was shown in cyan, and the C-terminus of FOXM1 was shown according to its electrostatic potential. Right, hydrogen bonds are formed by residues at the interface of peptide and protein interaction. […] Streptavidin magnetic beads were added to lysates to pull down the biotin-peptides/protein complexes. […] M1-21mut was used as the control.

[3] = molecular target: T2, full-length FOXM1 (Homo sapiens, UniProt Q08050); assay: Biotin-peptide Pulldown with Streptavidin Magnetic Beads; type: binding; details: biotin-labeled peptide, cell lysates (500 µg) with endogenous or exogenous FOXM1; Western Blotting
T2 sequence (Q08050 703-763 limits assumed): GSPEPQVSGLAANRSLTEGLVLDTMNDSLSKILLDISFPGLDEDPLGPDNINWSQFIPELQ
Experimental: as §1

[4] = molecular target: T3, Flag-GFP-FOXM1(688–748) protein (Homo sapiens, UniProt Q08050); assay: as above; type: binding; details: biotin-labeled peptide, 293T cell lysates (500 µg) expressing Flag-GFP-FOXM1(688–748); Western Blotting
T3 construct: expressing exogenous Flag-GFP-FOXM1(688-748) protein; expressed in transfected cells; host or cells: 293T (HEK-293T) cell lysates
T3 sequence (Q08050 688-748 isoform Q08050-2): T2 sequence (Q08050 703-763 limits assumed)
Text: Fig. 1 Screening of TAT-106-126 peptide targeting FOXM1 protein. A An in silico peptide library (P1 to P24, 21-mer) was created from the FOXM1 N-terminus sequence (1-138aa) with a 5 amino acid shift window. The peptide candidates binding to FOXM1 C-terminus (PDB ID 6OSW) were selected by Rosetta FlexPepDock simulation and InterfaceAnalyzer calculation according to docking free energy (dG). B P20, P21, and P22 fused with the cell-penetrating TAT sequence (TAT-96-116, TAT-101-121, and TAT-106-126) were produced by solid-phase peptide synthesis. […] Data points indicated the fraction of GFP-M1(688–748)-bound peptides (ΔFNormal/Amplitude) at different concentrations and curves indicated the calculated fits. The error bars represented the standard error of three independent measurements. […] 48 h Later, trypan blue (0.4%) was added to each well for 3 min and the cells were fixed to 4% paraformaldehyde for imaging. […] The mean IC50 value (µM) for each peptide was obtained from three replicates. D The TAT-106-126 peptide was biotin-labeled and added to 293T cell lysates (500 µg) expressing exogenous Flag-GFP-FOXM1(688–748) protein. The lysates were incubated with Streptavidin magnetic beads to pull down biotin-peptide/protein complexes. Biotin and Flag-GFP-FOXM1(688–748) protein in samples were detected by Western Blotting. […] E Biotin-labeled TAT-106-126 or TAT was added to 293T cell lysates (500 µg). The lysates were incubated with Streptavidin magnetic beads to pull down biotin-peptide/protein complexes. Biotin and endogenous FOXM1 protein were detected by Western Blotting.
A Biotin-labeled peptides TAT-96-116, TAT-101-121, and TAT-106-126 were added to 293T cell lysates (500 µg) expressing exogenous Flag-GFP-FOXM1(688-748) protein (or Flag-GFP control lysates). The lysates were incubated with Streptavidin magnetic beads to pull down biotin-peptide/protein complexes. Biotin and Flag-GFP-FOXM1(688-748) protein in samples were detected by Western Blotting. […] Biotin and exogenous FOXM1 protein were detected by Western Blotting.

T1 sequence (Q08050 1-748 isoform Q08050-2): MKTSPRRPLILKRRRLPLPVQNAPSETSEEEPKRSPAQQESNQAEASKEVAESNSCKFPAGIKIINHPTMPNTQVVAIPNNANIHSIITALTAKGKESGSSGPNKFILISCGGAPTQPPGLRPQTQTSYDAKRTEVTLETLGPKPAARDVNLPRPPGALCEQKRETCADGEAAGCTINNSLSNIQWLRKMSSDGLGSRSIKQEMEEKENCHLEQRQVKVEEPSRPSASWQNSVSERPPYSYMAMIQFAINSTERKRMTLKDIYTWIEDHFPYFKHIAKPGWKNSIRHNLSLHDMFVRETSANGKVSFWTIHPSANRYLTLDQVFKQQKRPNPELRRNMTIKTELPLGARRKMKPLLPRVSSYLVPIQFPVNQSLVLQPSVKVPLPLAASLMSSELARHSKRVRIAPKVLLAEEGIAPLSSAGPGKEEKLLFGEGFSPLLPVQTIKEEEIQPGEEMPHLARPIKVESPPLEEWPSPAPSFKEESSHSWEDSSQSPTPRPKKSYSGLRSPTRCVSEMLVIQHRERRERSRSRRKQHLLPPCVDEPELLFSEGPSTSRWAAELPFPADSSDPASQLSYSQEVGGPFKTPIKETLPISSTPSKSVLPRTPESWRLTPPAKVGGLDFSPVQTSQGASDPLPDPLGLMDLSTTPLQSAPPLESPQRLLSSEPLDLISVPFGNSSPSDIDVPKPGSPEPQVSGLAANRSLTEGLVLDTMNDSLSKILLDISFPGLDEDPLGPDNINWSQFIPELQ

Sequence	interaction between FOXM1 and PLK1 (Co-IP) [1]	Half-life in living MDA-MB-231 cells [2] [h]	binding to full-length FOXM1 in Pulldown [3]	binding to FOXM1 C-terminus in Pulldown [4]
GRKKRRQRRRFILISCGGAPTQPPGLRPQTQ [TAT-106-126]	comparable activity to M1-21	6.2	capable of binding	capable of binding
GRKKRRQRRRKESGSSGPNKFILISCGGAPT [TAT-96-116]			neither of them effectively bound	interacted
GRKKRRQRRRSGPNKFILISCGGAPTQPPGL [TAT-101-121]			neither of them effectively bound	interacted

From article PMC10286459 (Cell & Bioscience, 2023)
